Test results reported in US20060069132A1, “Azolecarboxamide herbicides” (priority 2004, published 2006).

Legend:
[1] = tested on: giant foxtail; experiment: Test A pre-/postemergence herbicide test; type: in vivo, Setaria faberi
Outline: (§1)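 Visual injury scores on a 0–100 scale (100 = complete control) taken about ten days post-treatment in greenhouse against untreated controls; dash means no result. Treatments: preemergence soil spray and postemergence spray to runoff on one- to two-leaf plants 2 to 10 cm tall, surfactant-containing formulation.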

[2] = tested on: morningglory; experiment: Test A pre-/postemergence herbicide test; type: in vivo, Ipomoea spp.
Outline: as §1

[3] = tested on: velvetleaf; experiment: Test A pre-/postemergence herbicide test; type: in vivo, Abutilon theophrasti
Outline: as §1

[4] = tested on: rice; experiment: Test C flooded paddy test; type: in vivo, Oryza sativa; details: for Plant response rating, Rice: visual rating after 12 to 14 days
Outline: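 Plants were grown to the 1- to 4-leaf stage (2–18 cm) and then treated postemergence, or grown to the 2-leaf stage for the flooded paddy test. They were held in a greenhouse for 12 to 14 days and then scored by eye against controls, where 0 is no effect and 100 is complete control.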

[5] = tested on: ducksalad; experiment: Test C flooded paddy test; type: in vivo, Heteranthera limosa; details: for Plant response rating, Ducksalad: visual rating after 12 to 14 days
[6] = Postemergence, 500 g ai/ha, 0 to 100 scale, 0 no effect, 100 complete control
[7] = Postemergence, 2000 g ai/ha, 0 to 100 scale, 0 no effect, 100 complete control
[8] = Preemergence, 500 g ai/ha, visual rating, 0 to 100 scale (0 no effect, 100 complete control)
[9] = Preemergence, 2000 g ai/ha, visual rating, 0 to 100 scale (0 no effect, 100 complete control)
[10] = preemergence, 500 g ai/ha, visual injury, 0 to 100 scale (0 no effect, 100 complete control)
[11] = 62 g ai/ha, scale 0 to 100 (0 no effect, 100 complete control)
[12] = 125 g ai/ha, scale 0 to 100 (0 no effect, 100 complete control)
[13] = 250 g ai/ha, scale of 0 to 100, 0 is no effect, 100 is complete control
[14] = 500 g ai/ha, scale 0 to 100 (0 no effect, 100 complete control)
[15] = Postemergence, 125 g ai/ha, 0 to 100 scale, 0 no effect, 100 complete control
[16] = preemergence, 125 g ai/ha, visual injury, 0 to 100 scale (0 no effect, 100 complete control)
[17] = 125 g ai/ha, scale of 0 to 100, 0 is no effect, 100 is complete control
[18] = Preemergence, 2000 g ai/ha, 0 to 100 scale, 0 no effect, 100 complete control
[19] = 250 g ai/ha, scale 0 to 100 (0 no effect, 100 complete control)

CCn1nc(C(C)(C)C)cc1C(=O)Nc1cccc(OCCCF)c1 [Compound 138]
Foxtail, Giant plant response rating [1, 6]: 20
Plant response rating, Foxtail, Giant [1, 7]: 35
Foxtail, Giant plant response rating [1, 8]: 30
Foxtail, Giant plant response rating [1, 9]: 90
Morningglory plant response rating [2, 6]: 15
Plant response rating, Morningglory [2, 7]: 40
Morningglory plant response rating [2, 8]: 15
Morningglory plant response rating [2, 9]: 45
Velvetleaf plant response rating [3, 6]: 20
Plant response rating, Velvetleaf [3, 7]: 60
Velvetleaf plant response rating [3, 9]: 50
Velvetleaf plant response rating [3, 10]: 20
Rice plant response rating [4, 11]: 5
Rice plant response rating [4, 12]: 5
Rice plant response rating [4, 13]: 5
Plant response rating, Rice [4, 14]: 40
Ducksalad plant response rating [5, 11]: 0
Ducksalad plant response rating [5, 12]: 20
Ducksalad plant response rating [5, 13]: 55
Plant response rating, Ducksalad [5, 14]: 70

CCn1nc(C(C)(C)C)cc1C(=O)Nc1cccc(C(=O)NC(C)C)c1 [Compound 51]
Foxtail, Giant plant response rating [1, 15]: 20
Plant response rating, Foxtail, Giant [1, 6]: 40
Foxtail, Giant plant response rating [1, 8]: 100
Foxtail, Giant plant response rating [1, 16]: 70
Morningglory plant response rating [2, 15]: 10
Plant response rating, Morningglory [2, 6]: 35
Morningglory plant response rating [2, 8]: 15
Morningglory plant response rating [2, 16]: 10
Velvetleaf plant response rating [3, 15]: 40
Velvetleaf plant response rating [3, 8]: 100
Velvetleaf plant response rating [3, 16]: 20
Rice plant response rating [4, 11]: 0
Rice plant response rating [4, 17]: 0
Rice plant response rating [4, 13]: 15
Plant response rating, Rice [4, 14]: 50
Ducksalad plant response rating [5, 11]: 0
Ducksalad plant response rating [5, 17]: 55
Ducksalad plant response rating [5, 13]: 75
Plant response rating, Ducksalad [5, 14]: 85

CCn1nc(C(C)(C)C)cc1C(=O)Nc1cccc(C(=O)NCCF)c1 [Compound 45]
Plant response rating, Foxtail, Giant [1, 6]: 90
Plant response rating, Foxtail, Giant [1, 7]: 95
Foxtail, Giant plant response rating [1, 8]: 75
Foxtail, Giant plant response rating [1, 18]: 100
Plant response rating, Morningglory [2, 6]: 25
Plant response rating, Morningglory [2, 7]: 25
Morningglory plant response rating [2, 8]: 15
Morningglory plant response rating [2, 18]: 75
Plant response rating, Velvetleaf [3, 7]: 65
Velvetleaf plant response rating [3, 8]: 25
Velvetleaf plant response rating [3, 18]: 65
Rice plant response rating [4, 11]: 30
Rice plant response rating [4, 17]: 30
Plant response rating, Rice [4, 19]: 35
Plant response rating, Rice [4, 14]: 65
Ducksalad plant response rating [5, 11]: 0
Ducksalad plant response rating [5, 17]: 0
Plant response rating, Ducksalad [5, 19]: 60
Plant response rating, Ducksalad [5, 14]: 60

CCn1nc(C(C)(C)C)cc1C(=O)Nc1cncc(C(=O)N2CC=CC2)n1 [Compound 290]
Foxtail, Giant plant response rating [1, 6]: 15
Plant response rating, Foxtail, Giant [1, 7]: 70
Foxtail, Giant plant response rating [1, 9]: 90
Foxtail, Giant plant response rating [1, 10]: 50
Morningglory plant response rating [2, 6]: 20
Plant response rating, Morningglory [2, 7]: 30
Morningglory plant response rating [2, 9]: 40
Morningglory plant response rating [2, 10]: 10
Velvetleaf plant response rating [3, 6]: 20
Plant response rating, Velvetleaf [3, 7]: 30
Velvetleaf plant response rating [3, 9]: 30
Velvetleaf plant response rating [3, 10]: 15
Rice plant response rating ([4]; 62 g ai/ha, scale 0 to 100): 0
Rice plant response rating [4, 12]: 0
Rice plant response rating [4, 13]: 15
Plant response rating, Rice [4, 14]: 45
Ducksalad plant response rating ([5]; 62 g ai/ha, scale 0 to 100): 0
Ducksalad plant response rating [5, 12]: 0
Ducksalad plant response rating [5, 13]: 45
Plant response rating, Ducksalad [5, 14]: 70

CCc1nc(C(C)(C)C)sc1C(=O)Nc1cccc(C(=O)NCCF)c1 [Compound 209]
Foxtail, Giant plant response rating [1, 6]: 15
Plant response rating, Foxtail, Giant [1, 7]: 25
Foxtail, Giant plant response rating [1, 9]: 90
Foxtail, Giant plant response rating [1, 10]: 50
Morningglory plant response rating [2, 6]: 0
Plant response rating, Morningglory [2, 7]: 15
Morningglory plant response rating [2, 9]: 40
Morningglory plant response rating [2, 10]: 20
Velvetleaf plant response rating [3, 6]: 10
Plant response rating, Velvetleaf [3, 7]: 20
Velvetleaf plant response rating [3, 9]: 75
Velvetleaf plant response rating [3, 10]: 10
Rice plant response rating [4, 11]: 0
Rice plant response rating [4, 12]: 45
Rice plant response rating [4, 13]: 45
Plant response rating, Rice [4, 14]: 65
Ducksalad plant response rating [5, 11]: 65
Ducksalad plant response rating [5, 12]: 65
Ducksalad plant response rating [5, 13]: 65
Plant response rating, Ducksalad [5, 14]: 80

CCn1nc(C(C)(C)C)cc1C(=O)Nc1cccc(OS(=O)(=O)CC)c1 [Compound 408]
Rice plant response rating ([4]; 62 g ai/ha, scale 0 to 100): 25
Rice plant response rating [4, 12]: 35
Rice plant response rating [4, 13]: 45
Plant response rating, Rice [4, 14]: 55
Ducksalad plant response rating ([5]; 62 g ai/ha, scale 0 to 100): 65
Ducksalad plant response rating [5, 12]: 85
Ducksalad plant response rating [5, 13]: 95
Plant response rating, Ducksalad [5, 14]: 95

CCn1nc(C(C)(C)C)cc1C(=O)Nc1nc(C(=O)N2CC=CC2)ccc1F [Compound 281]
Foxtail, Giant plant response rating [1, 6]: 0
Plant response rating, Foxtail, Giant [1, 7]: 25
Foxtail, Giant plant response rating [1, 9]: 75
Foxtail, Giant plant response rating [1, 10]: 60
Morningglory plant response rating [2, 6]: 10
Plant response rating, Morningglory [2, 7]: 15
Morningglory plant response rating [2, 9]: 25
Morningglory plant response rating [2, 10]: 5
Velvetleaf plant response rating [3, 6]: 35
Plant response rating, Velvetleaf [3, 7]: 40
Velvetleaf plant response rating [3, 9]: 35
Velvetleaf plant response rating [3, 10]: 10
Rice plant response rating ([4]; 62 g ai/ha, scale 0 to 100): 0
Rice plant response rating [4, 12]: 0
Rice plant response rating [4, 13]: 15
Plant response rating, Rice [4, 14]: 50
Ducksalad plant response rating ([5]; 62 g ai/ha, scale 0 to 100): 0
Ducksalad plant response rating [5, 12]: 0
Ducksalad plant response rating [5, 13]: 70
Plant response rating, Ducksalad [5, 14]: 85

CCn1nc(C(C)(C)C)cc1C(=O)Nc1cc(C(=O)NCC2CC2)ccn1 [Compound 155]
Rice plant response rating [4, 11]: 0
Rice plant response rating [4, 12]: 0
Rice plant response rating [4, 13]: 0
Plant response rating, Rice [4, 14]: 35
Ducksalad plant response rating [5, 11]: 45
Ducksalad plant response rating [5, 12]: 80
Ducksalad plant response rating [5, 13]: 85
Plant response rating, Ducksalad [5, 14]: 90
